Article PMC11791359, “A select inhibitor of MORC2 encapsulated by chimeric membranecoated DNA nanocage target alleviation TNBC progression” (Materials Today Bio, 2025)
Entries after “also recorded” stand apart in the source; their conditions may differ. Values belong to the compound of their own block, whether it stands above or below them. Residues, ends and D or L forms follow the SMILES beside them. *: point of attachment. Cbz = O=C(OCc1ccccc1)*; CH2F = FC*

Assays:
[1] = tested on: TNBC-bearing BALB/c nude mice; details: mouse, in vivo
neutrophils = assay: Phagocytosis by neutrophils (fluorescence microscopy); format: cell-based, human; details: incubated 4 hours
primary TNBC cells = assay: Uptake by primary TNBC cells (fluorescence microscopy); format: cell-based, human; details: incubated 6 hours
[2] = tested on: TNBC-bearing BALB/c nude mice; assay: In vivo distribution and tumor uptake in TNBC-bearing mice; details: tail vein injection, fluorescent in vivo imaging
MDA-MB-468 cells = assay: CCK8 assay, MDA-MB-468; format: cell-based, human; details: CCK8, MDA-MB-468, 24 h
Procedure: (§1) MDA-MB-231 and MDA-MB-468 cells were inoculated on 96-well plates with 5×10^3 cells per well, and then different small molecule drugs were added according to study requirements after the cell culture reached the appropriate density. Twenty-four hours after treatment, CCK-8 reagent was added to each well and incubated for 2 hours. Then, the absorbance of each well was measured at 450 nm using an enzyme-labeler to calculate the relative survival rate of cells.

[3] = tested on: primary TNBC cell xenograft tumors; assay: In vivo antitumor efficacy, primary TNBC xenograft; design: species or system BALB/c nude mice
Procedure: Xenograft tumor models were established by injecting primary TNBC cells under the skin of BALB/c nude mice. Then, one week after implantation, the mice were administered with normal saline, Angoline, PMD and PMD (Angoline) respectively via tail vein injection every 3 days. Also, the tumor volume in mice was measured every three days. […] Finally, all mice were sacrificed three weeks later and xenografts were removed. […] Additionally, significant differences in tumor weight were observed among the four groups (Fig. […]). […] Thus, we performed immunofluorescence staining to analyze the expression of Ki-67 in different groups. […] Furthermore, TUNLE staining was performed to evaluate the apoptosis of tumors treated with different drugs (Fig. 5E). […] PMD(Angoline) was prepared by encapsulating Angoline into tDNAn following the assembly steps mentioned above. Tumor-bearing mice were established using primary TNBC cells obtained from patients, following the methods described in the animal assessment section. Then, those mice were intravenously administrated with saline, Angoline, PMD and PMD(Angoline) every 3 days, respectively. Meanwhile, the tumor volume and mice weight were continuously monitored every 3 days. Ultimately, the mice were sacrificed after three weeks to obtain the tumors and vital organs (heart, liver, spleen, lung and kidney). Ki-67 expression was detected by immunofluorescence to determine the tumor growth in different groups. Also, HE staining was used to determine the damage of different drugs to important organs.

TNBC cells [4] = assay: Cell cycle by flow cytometry; format: cell-based, human; details: TNBC cells after Angoline treatment
Procedure: (§2) The treated cells were digested with pancreatic enzymes and then were collected and washed with PBS. The cells were immobilized with pre-cooled 70% ethanol at 4 ℃ for 12-24 hours, and then centrifuged, washed, and suspended to ensure uniform cell dispersion. Propyridine iodide staining solution was added to each cell sample and incubated without light at 37 ℃ for 30 minutes. Subsequently, the labeled cells were subjected to cell cycle analysis using flow cytometer (Beckman Coulter, USA), and the results were processed by FlowJo software. For the apoptosis assay, 1 × 10^5 cells per sample were collected into 1.5 mL centrifuge tubes and were re-suspended with 195 μL Annexin V-FITC binding solution. Then, 5 μL Annexin V-FITC and 10 μL PI dyeing solution were added into every sample to re-suspend the cells and incubated at 20-25 °C for 20 minutes. Flow cytometry was used to detect red fluorescence at 638 nm and green fluorescence at 488 nm, and the apoptosis results were analysed by FlowJo software.

[5] = tested on: phosphotyrosine STAT3 (p-STAT3); assay: Western blot of p-STAT3 in TNBC cells; format: cell-based, human
Procedure: Disruption of the IL6/STAT3 signaling pathway can induce cell cycle arrest and apoptosis, which may contribute to the tumor cell death observed in our study following Angoline treatment. Thus, WB analysis was performed to verify our hypothesis. […] These changes were also observed in tumor-bearing mice treated with Angoline (Fig. 3G). Thus, Angoline may also killing the TNBC cells by inhibiting the IL6/STAT3 signaling pathway.
TNBC cells were inoculated in 10-cm plates with 50–60% confluence and incubated for 24 hours. Then, after cleaning the cells with PBS three times, the total proteins of cells were harvested by adding the RIPA lysis buffer and 1% Phenylmethanesulfonyl Fluoride (PMSF) into the plates and scraping off the lysed cells. The total proteins were calculated by the BCA protein estimation assay and were isolated by 10% SDS‒PAGE. The protein was transferred onto the PVDF membrane and then blocked with 5% skim milk powder for 2 hours. The protein bands were probed with corresponding antibodies and incubated at 4 °C overnight. Then, the secondary antibodies were added and incubated 1 h at room temperature. Finally, the membranes were detected by the enhanced chemiluminescence detection system.

[6] = tested on: IL6/STAT3 signaling pathway; design: method as in PMID 24863036; details: cited from earlier work
MDA-MB-231 cells = assay: CCK8 assay, MDA-MB-231; format: cell-based, human; details: CCK8, MDA-MB-231, 24 h
Procedure: as §1

MCF-10A cells = format: cell-based, human
Procedure: Furthermore, the toxicity and side effects of PMD (Angoline) were evaluated through a comprehensive series of experiments. Firstly, normal breast epithelial cells (MCF-10A) were used to assess drug toxicity. […] Furthermore, we tested the immune-promoting cytokines, such as TNF-α, IL-1β and IL-6.

4T1 cells = assay: CCK8 assay, 4T1; format: cell-based, mouse; details: CCK8, 4T1
Procedure: CCK8 assay was performed to confirm the optimal killing concentration of Angoline on TNBC cells (MDA-MB-231, MDA-MB-468, and 4T1) in vitro. […] Thus, we further verified our speculation by detecting the cell viability and apoptosis rate of TNBC cells treated with Angoline and/or apoptosis inhibitor (Z-VAD-FMK). As expected, the toxic effect of Angoline on TNBC cells was reduced by Z-VAD-FMK (Fig. 2F). […] Also, YO-PRO-1 staining confirmed that the proportion of apoptotic cells was reduced when Z-VAD-FMK was added in the Angoline treated group (Fig. 2H). […] While, the detailed pro-apoptotic mechanism needs to be further elucidated.

TNBC cells [7] = assay: Apoptosis by flow cytometry (Annexin V-FITC/PI); format: cell-based, human
Procedure: as §2

[8] = Pharmacokinetic study, single intravenous injection; design: species or system Sprague-Dawley (SD) rats; details: Sprague-Dawley, rat, in vivo
Procedure: A pharmacokinetic (PK) study was performed to assess whether PMD could improve Angoline's systemic circulation and extend its half-life. Following a single intravenous injection of various formulations into Sprague-Dawley (SD) rats, blood samples were collected at predetermined time points and analyzed using HPLC. As illustrated in Fig. S19A and summarized in Table 1, the plasma concentration-time curves and PK parameters are presented. […] Furthermore, the data obtained from the area under the concentration-time curve (AUC) further confirmed the enhanced PK properties. Thus, the biomimetic nanodrug delivery system (PMD) confers Angoline with enhanced PK properties, attributed to its high stability and sustained drug release kinetics.

MORC2 protein = molecular target: T1, MORC2 protein (Homo sapiens, UniProt Q9Y6X9); assay: SPR molecular interaction, MORC2 protein (WT); format: binding
T1 construct: 6xHis; made in house; host or cells: Escherichia coli BL21
T1 sequence (Q9Y6X9 1-1032): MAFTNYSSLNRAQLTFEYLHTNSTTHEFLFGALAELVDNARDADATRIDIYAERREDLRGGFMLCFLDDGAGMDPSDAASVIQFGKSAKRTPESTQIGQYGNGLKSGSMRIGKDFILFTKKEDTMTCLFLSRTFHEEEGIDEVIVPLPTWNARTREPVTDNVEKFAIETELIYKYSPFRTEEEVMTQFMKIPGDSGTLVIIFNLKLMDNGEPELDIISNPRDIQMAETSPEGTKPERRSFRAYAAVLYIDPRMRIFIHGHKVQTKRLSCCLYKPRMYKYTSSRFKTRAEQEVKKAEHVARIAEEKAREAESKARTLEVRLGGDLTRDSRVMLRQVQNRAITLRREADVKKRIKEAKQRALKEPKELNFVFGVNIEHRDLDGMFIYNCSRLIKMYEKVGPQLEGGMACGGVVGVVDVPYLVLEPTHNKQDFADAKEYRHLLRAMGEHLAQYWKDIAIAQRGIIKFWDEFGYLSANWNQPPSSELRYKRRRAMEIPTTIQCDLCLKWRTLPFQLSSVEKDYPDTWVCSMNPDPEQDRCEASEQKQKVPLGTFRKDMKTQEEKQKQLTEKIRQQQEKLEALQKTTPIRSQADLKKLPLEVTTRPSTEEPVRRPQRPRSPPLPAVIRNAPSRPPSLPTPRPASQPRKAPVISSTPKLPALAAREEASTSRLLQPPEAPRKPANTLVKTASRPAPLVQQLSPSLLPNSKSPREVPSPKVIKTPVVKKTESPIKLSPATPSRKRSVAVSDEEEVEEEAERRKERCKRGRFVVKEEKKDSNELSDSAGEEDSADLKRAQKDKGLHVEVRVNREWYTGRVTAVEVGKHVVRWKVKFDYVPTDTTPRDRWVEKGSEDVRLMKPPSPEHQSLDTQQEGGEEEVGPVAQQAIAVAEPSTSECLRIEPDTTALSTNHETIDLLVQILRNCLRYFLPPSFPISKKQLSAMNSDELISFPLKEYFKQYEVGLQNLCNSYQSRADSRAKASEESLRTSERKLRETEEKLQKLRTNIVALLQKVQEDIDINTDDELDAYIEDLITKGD
Procedure: Topscience biological small molecule compound library was used to virtually screen out the potential small molecules by computer molecular docking. […] Then, a series of experiments were conducted to evaluate the binding ability between small molecule compounds and MORC2 protein. First, the optimal conditions for purification of MORC2 protein were investigated by univariate optimization method. Protein induction experiments were conducted under varying concentrations of IPTG (0 mM, 0.1 mM, 0.2 mM, 0.5 mM, 0.8 mM, 1 mM), temperature gradients (16 °C, 22 °C, 29 °C, 37 °C), and induction time (3 h, 6 h, 8 h, 10 h, 12 h). Finally, at 0.1 mM IPTG concentration, especially at 22 °C for 8 h, MORC2 protein expression reached the optimal level, which was verified by Coomassie blue staining (Figs. S7A–C). We cleared the other proteins by Binding/Wash Buffer 3 times and eluted the MORC2 protein with imidazole at 40 mM concentration to extract the high purity MORC2 protein (Fig. S7D). MORC2 protein with high purity was obtained according to the above conditions and verified by Coomassie blue staining (Fig. S7E). Then, surface plasmon resonance molecular interaction experiment was performed to detect the binding ability between small molecule compounds and MORC2 protein. […] Also, the binding strength between MORC2 and Angoline was dose-dependent on the concentration of Angoline (Fig. 2C). […]

uptake in tumor tissue sections [1]: rarely taken up by tumor cells
Compound: Rhodamine
uptake by neutrophils (neutrophils): neutrophils were entirely covered with red fluorescence
uptake by primary TNBC cells (primary TNBC cells): rarely taken up by TNBC cells
distribution in tumor-bearing mice [2]: rapidly diffused throughout the nude mice and was quickly cleared

Compound: COc1ccc2c(c1OC)C(OC)N(C)c1c-2ccc2cc3c(cc12)OCO3 (stereo not shown) [Angoline]
killing effect / inhibitory effect on cell viability (MDA-MB-468 cells): strongest killing effect; also recorded: progressively increased with higher concentrations
primary tumor growth (tumor volume) ([3]; tail vein injection every 3 days, three weeks): significant suppression of the primary tumor growth
apoptosis of tumors (TUNEL staining) ([3]; tumor tissue): significantly higher apoptosis rate compared to the groups treated with saline or PMD
proliferation capacity of tumor cell (Ki-67 immunofluorescence) ([3]; tumor tissue): significantly lower in the Angoline group than that in saline or PMD groups, but higher than PMD(Angoline) group
body weight ([3]; tumor-bearing mice, every 3 days): significantly increased
cell cycle distribution (TNBC cells [4]): higher proportion of TNBC cells remained in S and G2 phases
level of p-STAT3 [5]: significantly reduced
suppression of IL6/STAT3 signaling pathway [6]: suppress the IL6/STAT3 signaling pathway
killing effect / inhibitory effect on cell viability (MDA-MB-231 cells): strongest killing effect; also recorded: progressively increased with higher concentrations
toxicity toward MCF-10A cells (MCF-10A cells): neither Angoline nor PMD (Angoline) exhibited toxicity
inhibitory effect on cell viability (4T1 cells): progressively increased with higher concentrations
apoptosis rate (TNBC cells [7]; TNBC cells treated with Angoline): significantly increased; also recorded: dramatically increased
C0 [8]: 3.67 ± 0.28 µg/mL
AUC(0-inf) ([8]; SD rats, single i.v.): 15.4 ± 0.19 µg·h/mL
AUC(0-t) ([8]; SD rats, single i.v.): 13.2 ± 0.32 µg·h/mL
Cmax ([8]; SD rats, single i.v.): 3.41 ± 0.15 µg/mL
MRT ([8]; SD rats, single i.v.): 6.08 ± 0.18 h
clearance ([8]; SD rats, single i.v.): 2.29 mL/min
half-life ([8]; SD rats, single i.v.): 4.15 ± 0.06 h
Kd (MORC2 protein): 0.0233 µM

Compound: COC(=O)C[C@H](NC(=O)[C@H](C)NC(=O)[C@@H](NC(=O)OCc1ccccc1)C(C)C)C(=O)CF [Z-VAD-FMK, reference compound] (Cbz-Val-Ala-Asp(OMe)-CH2F)
effect on the proapoptotic effect of Angoline (TNBC cells [7]; TNBC cells, Angoline plus apoptosis inhibitor): significantly reduce the proapoptotic effect of Angoline
